Results taken from US20250179033A1 (priority 2021, published 2025).
“And” between values parts separate entries of the source, which are not always exact repeats. Equal entries are not always repeated. Where two headings read alike, the source gives them in different places.

Assay: In vivo pharmacokinetics, plasma and brain
Parameters: species or system Balb/C male mice
Details: 250 mg/kg intragastric; for AUC(0-inf) / MRT / half-life / AUC(0-t) / Cmax: male, Balb/C, mouse, po; for AUC(0-inf) / MRT / half-life / AUC(0-t) / Cmax / CL / Kel / Vd: plasma; for AUC(0-t): read-out: AUC0-7
Procedure: The pharmacokinetics of compound 1 was studied in white Balb/C male mice. 22 animals with an average body weight of 20 g were selected for the study. Before the study, the animals were kept on a standard vivarium ration with dry pelleted feed. All the test animals had free access to water but were deprived of food for 1 hour before administration of the compound. This regimen was continued for another hour after the administration.
Compound 1 in a dose of 250 mg/kg of body weight was administered as 0.5 ml of prepared suspension in 0.5% CMC by intragastric intubation. The animals were euthanized by decapitation for blood and brain sampling. Blood and brain samples (3 animals per time point) were taken at 0.5, 1, 2, 3, 5 and 7 hours after administration for pharmacokinetic evaluation. Blood was collected in heparinized tubes and centrifuged at 3500 RPM. Plasma was separated from formed elements and immediately frozen at −20° C. in freezer. This storage continued before transferring plasma for analysis. Serum from 6 untreated animals was used as a control and for equipment calibration with the compound. Mice brain was immediately frozen at −120° C.
Plasma separation: Samples of experimental blood ([…]) from animals were centrifuged at 3500 rpm for 15 minutes.
Sample preparation: A mixture of 60 μL of plasma and 180 μL of acetonitrile (MeCN) by intensive shaking (Vortex) for 30 sec. Centrifugation 32000 g for 4 min. After centrifugation the 150 μL of organic layer was injected into the HPLC column.
Equipment: HPLC System Agilent 1290 Infinity, MS spectrometer Agilent 6460 (Agilent Technologies, Santa Clara, California, United States of America)
HPLC conditions: Column: Agilent Eclipse Plus C18 RRHD 1.8 um 2.1×50 mm (Agilent Technologies, Santa Clara, California, United States of America), Temperature: 40° C., Flow speed: 0.4 mL/min
Eluent: A: water, 0.1% formic acid; B: 85% acetonitrile in water, 0.1% formic acid
Gradient: 0.0-3.0 min: 60% B (separation), 3.0-4.0 min: 60->97% B (washing and regeneration), 4.0-6.0 min: 97% B, 6.0-6.1 min: 97->60% B, 6.1-9.0 min: 60% B, Volume of sample: 2 μL. Retention time in above conditions: 2.40 min.
MS conditions: ESI(+), MRM 400->209, Dwell time: 200 ms, Fragmentor: 135 V, Collision energy: 12, Cell Accelerator: 3 V, Gas Temp: 350° C., Gas Flow: 12 I/min, Nebulizer: 35 psi, Sheath gas Temp: 300° C., Capillary Voltage: 3500 V, Nozzle Voltage: 450 V; Diverter valve: 0.0-1.3 min: to waste; 1.3-3.0 min: to MS, data acquisition, 3.0-7.0 min: to MS, idle, 7.0- . . . min: to waste
Brain separation: Samples of experimental brain from animals were dispersed at 25K turn/min for 3 minutes and 100 mg of each sample was balanced to a sterile container.
Sample preparation: A mixture of 100 mg of brain and 100 μL of water was treated by zirconium balls in a homogonisator MagNA Lyser for 30 sec. 300 μL of MeCN was added and intensive shaking (Vortex) for 30 sec was performed. Centrifugation 32000 g for 4 min.
Equipment: HPLC System Agilent 1290 Infinity, MS spectrometer Agilent 6460 (Agilent Technologies, Santa Clara, California, United States of America).
HPLC conditions: Column: Agilent Eclipse Plus C18 RRHD 1.8 um 2.1×50 mm (Agilent Technologies, Santa Clara, California, United States of America), Temperature: 40° C., Flow speed: 0.4 mL/min.
Eluent: A: water, 0.1% formic acid; B: 85% acetonitrile in water, 0.1% formic acid.
Gradient: 0.0-3.0 min: 60% B (separation), 3.0-4.0 min: 60->97% B (washing and regeneration), 4.0-6.0 min: 97% B, 6.0-6.1 min: 97->60% B, 6.1-9.0 min: 60% B, Volume of sample: 2 μL.
Retention time in above conditions: 2.40 min […]

SMILES: Nc1nc(Nc2ccc(Cl)cc2)nn1S(=O)(=O)c1ccc2ccccc2c1 [Compound 1, N3-(4-chlorophenyl)-1-(2-naphthylsulfonyl)-1,2,4-triazole-3,5-diamine]
- AUC(0-inf) (250 mg/kg, mean of mice groups): 6220 ng·h/mL
- MRT (250 mg/kg, mean of mice groups): 5.9 h
- half-life (250 mg/kg, mean of mice groups): 4.1 h
- AUC(0-t) (250 mg/kg, mean of mice groups): 4050 ng·h/mL
- AUC(0-inf) (250 mg/kg, mice group 1): 6230 ng·h/mL
- Cmax (250 mg/kg, mice group 1): 1050 ng/mL
- MRT (250 mg/kg, mice group 1): 7.4 h
- half-life (250 mg/kg, mice group 1): 5 h
- AUC(0-t) (250 mg/kg, mice group 1): 3710 ng·h/mL
- AUC(0-inf) (250 mg/kg, mice group 2): 6890 ng·h/mL
- Cmax (250 mg/kg, mice group 2): 1170 ng/mL
- MRT (250 mg/kg, mice group 2): 6.8 h
- half-life (250 mg/kg, mice group 2): 5 h
- AUC(0-inf) (250 mg/kg, mice group 3): 5550 ng·h/mL
- Cmax (250 mg/kg, mice group 3): 1350 ng/mL
- MRT (250 mg/kg, mice group 3): 3.6 h
- half-life (250 mg/kg, mice group 3): 2.4 h
- AUC(0-t) (250 mg/kg, mice group 3): 4080 ng·h/mL
- concentrations of the compound in brain (mice, preliminary, 250 mg/kg): 1-5 μg/ml and 2.5-12.5 μM
- CL (mean of mice groups): 0.809 L/h
- Kel (mean of mice groups): 0.1872 h⁻¹
- Vd (mean of mice groups): 4.8 L
- CL (mice group 1): 0.803 L/h
- Kel (mice group 1): 0.1382 h⁻¹
- Vd (mice group 1): 5.8 L
- CL (mice group 2): 0.725 L/h
- Kel (mice group 2): 0.1381 h⁻¹
- Vd (mice group 2): 5.3 L
- CL (mice group 3): 0.901 L/h
- Kel (mice group 3): 0.2852 h⁻¹
- Vd (mice group 3): 3.2 L
